Results on 38 compounds are retold here after patent publication US9227935B2, “Piperidine/piperazine derivatives” (Janssen Pharmaceutica N.V., priority 2007, dated 2016).

In this assay the target is T1, human DGAT1 (Homo sapiens, UniProt O75907).
T1 construct: FLAG (N); made in house; host or cells: SF9 insect cells (baculovirus, pFastBac); total cell membranes used as the enzyme source
T1 sequence (O75907 1-488): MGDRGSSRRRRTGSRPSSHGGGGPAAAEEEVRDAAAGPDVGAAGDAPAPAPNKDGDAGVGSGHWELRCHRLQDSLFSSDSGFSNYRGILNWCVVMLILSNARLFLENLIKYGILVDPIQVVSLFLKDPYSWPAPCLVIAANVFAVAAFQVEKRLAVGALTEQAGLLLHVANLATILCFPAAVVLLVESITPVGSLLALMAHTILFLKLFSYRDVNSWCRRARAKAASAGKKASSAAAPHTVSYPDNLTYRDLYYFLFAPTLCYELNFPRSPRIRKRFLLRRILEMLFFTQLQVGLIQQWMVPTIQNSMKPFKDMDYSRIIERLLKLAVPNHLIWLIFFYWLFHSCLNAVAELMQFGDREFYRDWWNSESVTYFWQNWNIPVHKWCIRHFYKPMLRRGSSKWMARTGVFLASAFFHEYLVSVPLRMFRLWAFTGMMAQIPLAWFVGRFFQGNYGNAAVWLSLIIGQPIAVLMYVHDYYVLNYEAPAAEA
Put plainly: DGAT1 FlashPlate inhibition assay with DGAT1 membrane preparations. It is filed as biochemical. Conditions: IC50 values expressed in M; pIC50 = -logIC50; inhibition of DGAT1 activity. The text has this: The inhibiting activity of the present compounds on DGAT1 activity was screened in a single well procedure assay using DGAT1 comprising membrane preparations and DGAT1 substrate comprising micelles and determining formed radio-active triacylglycerol coming in close proximity of a flashplate surface by radioluminescence.
Said assay is described in full detail in WO2006/067071, the content of which is incorporated herein by reference.
By DGAT1 activity is meant the transfer of coenzyme A activated fatty acids to the 3-position of 1,2-diacylglycerols, thus forming a triglyceride molecule, by enzyme DGAT1.
human DGAT1 (NM012079.2) was cloned into the pFastBac vector, containing translation start, a FLAG-tag at the N-terminus as described in literature and a viral Kozak sequence (AAX) preceding the ATG to improve expression in insect cells. Expression was done as described in literature (Cases, S., Smith, S. J., Zheng, Y., Myers H. M., Lear, S. R., Sande, E., Novak, S., Collins, C., Welch, C. B., Lusis, A. J., Erickson, S. K. and Farese, R. V. (1998) Proc. Natl. Acad. Sci. USA 95, 13018-13023.) using SF9 cells.
72 h transfected SF9 cells were collected by centrifugation (13000 rpm-15 min-4° C.) and lysed in 2×500 ml lysis buffer (0.1M Sucrose, 50 mM KCl, 40 mM KH2PO4, 30 mM EDTA pH 7.2. Cells were homogenized by cell disruptor. After centrifugation 1380 rpm-15 min-4° C. (SN discarded), pellet was resuspended in 500 ml lysis buffer and total cell membranes collected by ultracentrifugation at 34000 rpm (100 000 g) for 60 min (4° C.). The collected membranes were resuspended in lysis buffer, divided in aliquots and stored with 10% glycerol at −80° C. until use.
Add 1 ml dioleoyl-sn-glycerol (10 mg/ml) to 10 ml of L-α-phosphatidylcholine (1 mg/ml) and 10 ml of L-α-phosphatidyl-L-serine (1 mg/ml) in a thick glass recipient. Evaporate under nitrogen and put on ice for 15 minutes. Reconstitute in 10 ml Tris/HCl (10 mM, pH 7.4) by sonication on ice. The sonification process consists of sonification cycles of 10 seconds in the sonification bath followed by 10 seconds cool down on ice and repeating this sonification cycle till a homogeneous solution is obtained (takes about 15 minutes). The thus obtained micelles are stored at −20° C. till later use and contain DAG at a final concentration of 1.61 mM.
• 50 mM Tris-HCl (pH 7.4), 150 mM MgCl2, 1 mM EDTA, 0.2% BSA. b) N-ethylmaleimide, 5M • Dissolve 5 g into a final volume of 8 ml DMSO 100% and store at −20° C. in aliquots till later use. c) Substrate mix (for 1 384 well plate=3840 μl) • 612 μl micelles stock (51 μM final) • 16.6 μl oleoylCoA 9.7 mM • 23 μl [^3H]-oleoylCoA (49 Ci/mmol, 500 μCi/ml) • 3188.4 μl Tris pH 7.4, 10 mM d) Enzyme mix (for 1 384 well plate=3520 μl) (5 μg/ml) • Add 11.73 μl of DGAT membrane stock (1500 μg/ml stock) to 3508 μl assay buffer. e) Stop mix (for 1 384 well plate=7.68 ml) (250 mM) • Add 384 μl of N-ethylmaleimide (5M) to 3.456 ml DMSO 100%, and further dilute 3.84 ml of said solution with 3.84 ml DMSO 10%. Method
DGAT activity in membrane preparations was assayed in 50 mM Tris-HCl (pH 7.4), 150 mM MgCl2, 1 mM EDTA and 0.2% BSA, containing 50 μM DAG, […] PC/PS and 8.4 μM [^3H]-oleoylCoA (at a specific activity of 30 nCi/well) in a final volume of 50 μl in 384-well format using the red shifted Basic Image FlashPlate™ (Perkin Elmer Cat. No. SMP400).
In detail, 10 μl enzyme mix and 10 μl substrate mix were added to 30 μl of assay buffer, optionally in the presence of 1 μl DMSO (blank and controls) or 1 μl of the compound to be tested. This reaction mixture was incubated for 120 minutes at 37° C. and the enzymatic reaction stopped by adding 20 μl of the stop mix. The plates were sealed and the vesicles allowed to settle overnight at room temperature. Plates were centrifuged for 5 minutes at 1500 rpm and measured in Leadseeker. […]
A word on the IC50: it is the concentration that gives 50% inhibition. A higher IC50 goes with weaker potency. `O=C(Nc1ccc(C2CCN(C(=O)Nc3c(Cl)cccc3Cl)CC2)cc1)c1ccccc1-c1ccc(Cl)cc1` [Compound 57] had an IC50 of 646 nM.

`O=C(Nc1cccc(N2CCCC2)c1)c1ccc(N2CCN(C(=O)Nc3c(Cl)cc(CN4CCCC4)cc3Cl)CC2)cc1` [Compound 130]: half-maximal inhibition (IC50) was put at 7.24 nM. The figure for `COc1ccccc1NC(=O)N1CCN(c2ccc(NC(=O)c3ccccc3-c3ccc(C(F)(F)F)cc3)cc2)CC1` [Compound 80] is 5500 nM; for `Cc1ccccc1-c1cccc(C(=O)Nc2ccc(N3CCN(C(=O)Nc4c(Cl)cccc4Cl)CC3)cc2)c1` [Compound 36] it is 1.74 nM; for `Cc1ccccc1-c1cccc(C(=O)Nc2ccc(C3CCN(C(=O)Nc4c(Cl)cccc4Cl)CC3)cc2)c1` [Compound 60] it is 17.4 nM.

Turning to `O=C(Nc1ccc(N2CCN(C(=O)Nc3c(Cl)cccc3Cl)CC2)cc1)c1ccc(-c2cc[nH]n2)cc1` [Compound 25], the 50% inhibitory concentration (IC50) was 70.8 nM. To `CCC(C)c1ccccc1NC(=O)N1CCN(c2ccc(NC(=O)c3ccccc3-c3ccc(C(F)(F)F)cc3)cc2)CC1` (centres unmarked) [Compound 79] belongs 6460 nM. `CCOC(=O)c1cccc(C(=O)Nc2ccc(N3CCN(C(=O)Nc4c(Cl)cccc4Cl)CC3)cc2)c1` [Compound 125]: half-maximal inhibition (IC50) required 2.82 nM. In turn, `O=C(Nc1ccc(C2=CCN(C(=O)NCc3ccccc3)CC2)cc1)c1ccccc1-c1ccc(C(F)(F)F)cc1` [Compound 121] gave a 50% inhibitory concentration (IC50) of 4900 nM. The figure for `CN1CCN(c2ccc(C(=O)Nc3ccc(N4CCN(C(=O)Nc5c(Cl)cccc5Cl)CC4)cc3)cc2)CC1` [Compound 44] is 100 nM; for `Cc1cc(Br)cc(C)c1NC(=O)N1CCN(c2ccc(NC(=O)c3ccccc3-c3ccc(C(F)(F)F)cc3)cc2)CC1` [Compound 100] it is 1550 nM; for `COc1ccc(CNC(=O)N2CC=C(c3ccc(NC(=O)c4ccccc4-c4ccc(C(F)(F)F)cc4)cc3)CC2)cc1` [Compound 123] it is 4170 nM. Consider `CC(C)(C)c1ccccc1NC(=O)N1CCN(c2ccc(NC(=O)c3ccccc3-c3ccc(C(F)(F)F)cc3)cc2)CC1` [Compound 78], for which it took 7590 nM to reach half-maximal inhibition (IC50). The figure for `CCc1nc(C)c(-c2ccccc2C(=O)Nc2ccc(C3CCN(C(=O)Nc4c(Cl)cccc4Cl)CC3)cc2)s1` [Compound 55] is 26.3 nM; for `O=C(Nc1ccc(C2=CCN(C(=O)NCC3CCCCC3)CC2)cc1)c1ccccc1-c1ccc(C(F)(F)F)cc1` [Compound 120] it is 4270 nM; for `Cc1ccc(C)n1-c1ccc(C(=O)Nc2ccc(N3CCN(C(=O)Nc4c(Cl)cccc4Cl)CC3)cc2)cc1` [Compound 19] it is 145 nM. Turning to `CCOc1ccccc1NC(=O)N1CCN(c2ccc(NC(=O)c3ccccc3-c3ccc(C(F)(F)F)cc3)cc2)CC1` [Compound 81], the 50% inhibitory concentration (IC50) was 8130 nM.

`Cc1cc(C)c(NC(=O)N2CCN(c3ccc(NC(=O)c4ccccc4-c4ccc(C(F)(F)F)cc4)cc3)CC2)c(Cl)c1` [Compound 102]: the IC50 is 170 nM.

`O=C(Nc1ccc(C2CCN(C(=O)Nc3c(Cl)cccc3Cl)CC2)cc1)C1CNC1` [Compound 46]: it took 2400 nM to reach half-maximal inhibition (IC50).

`CC(C)(C)c1ccc(-c2ccccc2C(=O)Nc2ccc(N3CCN(C(=O)Nc4c(Cl)cccc4Cl)CC3)cc2)cc1` [Compound 35] gave an IC50 of 117 nM. To `Cc1cc(C)c(NC(=O)N2CCN(c3ccc(NC(=O)c4ccccc4-c4ccc(C(F)(F)F)cc4)cc3)CC2)c(C)c1Br` [Compound 104] belongs 2000 nM; to `O=C(Nc1ccc(N2CCN(C(=O)Nc3c(Cl)cccc3Cl)CC2)cc1)c1ccccc1N1CCOCC1` [Compound 39], 380 nM. To `O=C(Nc1ccc(C2CCN(C(=O)Nc3c(Cl)cccc3Cl)CC2)cc1)c1ccccc1-c1ccccc1` [Compound 56] belongs 331 nM; to `COC(=O)c1cccc(C(=O)Nc2ccc(N3CCN(C(=O)Cc4c(Cl)cc(CN5CCCC5)cc4Cl)CC3)cc2)c1` [Compound 145], 112 nM; to `Cc1nc(-c2cccc(C(=O)Nc3ccc(N4CCN(C(=O)Nc5c(Cl)cccc5Cl)CC4)cc3)c2)cs1` [Compound 17], 2.09 nM. To `O=C(Nc1ccc(N2CCN(C(=O)NCC3CCCCC3)CC2)cc1)c1ccccc1-c1ccc(C(F)(F)F)cc1` [Compound 5] belongs 7590 nM; to `O=C(Nc1ccc(N2CCN(C(=O)NCc3ccccc3)CC2)cc1)c1ccccc1-c1ccc(C(F)(F)F)cc1` [Compound 70], 5500 nM; to `COc1cccc(OC)c1NC(=O)N1CCC(c2ccc(NC(=O)c3ccccc3-c3ccc(C(F)(F)F)cc3)cc2)CC1` [Compound 111], 4570 nM.

Compound `CCOC(=O)c1ccc(NC(=O)N2CCN(c3ccc(NC(=O)c4ccccc4-c4ccc(C(F)(F)F)cc4)cc3)CC2)cc1` [Compound 72] showed an IC50 of 7760 nM. The figure for `O=C(Nc1ccc(N2CCN(C(=O)Nc3c(Cl)cccc3Cl)CC2)cc1)c1cccc(N2CCS(=O)(=O)CC2)c1` [Compound 43] is 437 nM; for `O=C(Nc1ccc(N2CCN(C(=O)Nc3c(Cl)cccc3Cl)CC2)cc1)c1ccc(-n2ccnc2)cc1` [Compound 24] it is 347 nM; for `Cc1nc(C(=O)Nc2ccc(N3CCN(C(=O)Nc4c(Cl)cccc4Cl)CC3)cc2)c(-c2ccc(C(C)C)cc2)s1` [Compound 2] it is 112 nM.

With `Cc1nc(C(=O)Nc2ccc(C3CCN(C(=O)Nc4c(Cl)cccc4Cl)CC3)cc2)c(-c2ccc(C(C)C)cc2)s1` [Compound 3], the IC50 is 1170 nM. To `O=C(Nc1ccc(N2CCN(C(=O)NCCCc3ccccc3)CC2)cc1)c1ccccc1-c1ccc(C(F)(F)F)cc1` [Compound 71] belongs 3550 nM. To `CCc1cccc(C)c1NC(=O)N1CCN(c2ccc(NC(=O)c3ccccc3-c3ccc(C(F)(F)F)cc3)cc2)CC1` [Compound 83] belongs 1550 nM; to `CN1CC(C(=O)Nc2ccc(N3CCN(C(=O)Nc4c(Cl)cccc4Cl)CC3)cc2)CC1=O` (centres unmarked) [Compound 11], 1120 nM; to `O=C(Nc1ccc(N2CCN(C(=O)Nc3c(Cl)cccc3Cl)CC2)cc1)c1cccc(-n2ccnc2)c1` [Compound 23], 33.1 nM. To `CCc1ccccc1NC(=O)N1CCN(c2ccc(NC(=O)c3ccccc3-c3ccc(C(F)(F)F)cc3)cc2)CC1` [Compound 75] belongs 2140 nM.
